According to patent US7494821B2, “Fluorescein based sensors for tracking nitric oxide in live cells” (Massachusetts Institute of Technology, priority 2005, dated 2009):

How the values were obtained:
[1] = Fluorescence response to NO in buffered aqueous solution; details: for fluorescence on reaction with NO-releasing agent SNAP: pH 7.0 (50 mM PIPES, 100 mM KCl), 30 min time interval
Procedure: FIG. 5 depicts the fluorescence response of Cu(FL5) to NO. Fluorescence emission spectra (λex=503 nm) of a deoxygenated 1 μM solution of Cu(FL5) in buffered solution (50 mM PIPES, pH 7.0, 100 mM KCl) before (dashed line), immediately, 1, 2 and 5 min after (solid lines) admission of 1300 equiv of NO (g) at 37° C.
The fluorescence of a 1 μM FL5 solution was diminished by 18±3% upon introduction of an equimolar quantity of CuCl2 at 37° C. Addition of excess NO to a buffered aqueous Cu(FL5) solution led to an immediate 11.2±1.5-fold increase in fluorescence (FIG. 5). […] The lower detection limit for NO is 5 nM.
A commercially available NO probe, DAF-2 (o-diaminofluorescein), was used for comparison with Cu(FL5). The fluorescence of DAF-2 is unchanged in the presence of NO and the absence of O2 over a period of 1 h.
As depicted in FIG. 4, NO detection by Cu(FL5) occurs, formally, by nitric oxide-induced reduction of Cu(II) to Cu(I), forming NO^+, which nitrosates the ligand with concomitant dissociation from copper and fluorescence turn-on. The mechanism of turn-on emission of Cu(FL5) by NO was investigated by EPR, UV-vis, NMR and fluorescence spectroscopy and by liquid chromatography-mass spectrometry (LC-MS, low resolution MS).

[2] = tested on: SK-N-SH human neuroblastoma cells; assay: Detection of NO produced by cNOS in SK-N-SH cells (fluorescence imaging); assay type: cell-based
Procedure: FIG. 7 illustrates Cu(FL5) detection of NO produced by cNOS. (a) NO detection in SK-N-SH cells by Cu(FL5). Left to right: 25 min incubation of Cu(FL5) (1 μM) and 5, 10, 15, 25 min after co-treatment of Cu(FL5) (1 μM) and 17β-estradiol (100 nM). Images were taken with a Nikon Eclipse TS100 microscope after removing the DMEM media and washing the cells with PBS. Top: fluorescence images; bottom: phase contrast images. (b) Fluorescence intensity (F(t)/FCu(FL5)) from a was plotted against incubation time. (c) NO production with or without of L-NNA. Right: NO detection in cells after 10 min co-incubation of Cu(FL5) (1 μM) and 17β-estradiol (100 nM). Left: NO detection in cells pre-treated with L-NNA for 1 h before addition of Cu(FL5) and 17β-estradiol.
We investigated the ability of Cu(FL5) to detect NO produced in SK-N-SH human neuroblastoma cells under physiological conditions, since constitutive NO synthase (“cNOS”) in this cell line can be activated by estrogen to produce NO. Estrogen administration leads to an increase in the cytosolic Ca(II) concentration that alters the structure of calmodulin, which in turn activates cNOS. The NO-dependent fluorescence response, monitored after simultaneous administration of 17β-estradiol (100 nM) and Cu(FL5) (1 μM) to the cells, was completed within 5 min with a 4.0±0.6-fold increase in fluorescence (FIGS. 5a and b). […] As another control, HeLa cells were co-treated with 17β-estradiol (100 nM) and Cu(FL5) (1 μM).
Raw 264.7, SK-N-SH, and HeLa cells were purchased from the American Type Culture Collection (ATCC). All three cell lines were maintained in Dulbecco's modified Eagles' media (DMEM) (GibcoBRL) containing 10% (v/v) heat-inactivated fetal bovine serum (FBS) (HyClone), 1 mM sodium pyruvate (Sigma), 100 units/ml penicillin, 100 μg/ml streptomycin (Invitrogen), and 0.1 mM nonessential amino acid solution for minimal essential medium (Sigma). All cells were grown at 37° C. in a humidified atmosphere of 10% CO2. A nitrite assay was performed with Griess reagents (Promega) on Raw 264.7 cells grown in DMEM free of phenol red. Calcium sensor fluo-4 AM was purchased from Invitrogen. MTT [3-(4,5-dimethylthiazol-2-yl)-2,5-diphenyltetrazolium bromide] (Sigma-Aldrich) assay was described in Supplementary information. The expression of iNOS in Raw 264.7 cells was analyzed by Western blot on the extracts of cells stimulated by LPS and INF-γ. The protein was silenced by short hairpin RNA-induced RNAi and the resulting cell lines were used in fluorescence imaging by Cu(FL5).

[3] = tested on: Raw 264.7 murine macrophage cells; assay: Detection of NO produced by iNOS in Raw 264.7 cells (fluorescence imaging); assay type: cell-based
Procedure: FIG. 8 illustrates Cu(FL5) detection of NO produced by iNOS. (a) NO detection in Raw 264.7 macrophage cells by Cu(FL5). Left to right: Cu(FL5) (1 μM) incubation with cells for 12 h, and 2, 4, 6, 8 h after addition of Cu(FL5) into cells that were pre-stimulated for 4 h with LPS (500 ng mL^−1) and IFN-γ (250 U mL^−1). The times depicted in the figure are the total incubation times with Cu(FL5). Images were taken immediately after removing the media and washing the cells three times with PBS. The instrument used was a Zeiss Axiovert 200M inverted epifluorescence microscope with differential interference contrast (DIC). Top: fluorescence images; bottom: DIC images. (b) Silencing of iNOS by RNAi in Raw 264.7 cells. A plasmid expressing shRNA was constructed to target the mRNA of iNOS. It was transfected into cells. The plasmid vector without insert for RNAi was transfected to establish a control cell line. The expression of iNOS in these two cell lines after stimulated by LPS and IFN-γ for 12 h was investigated by Western blot on the whole cell extracts with antibodies against the protein and actin, which served as loading control (lane 1: cells with control plasmid vector, lane 2: cells with plasmid expressing shRNA for iNOS). (c) NO detection in Raw 264.7 cells with iNOS silenced by RNAi. The two lines in (b) were treated with LPS and IFN-γ for 4 h before 8 h of incubation with Cu(FL5).
In macrophages, nitric oxide is produced by inducible NO synthases (“iNOS”). […] This method colorimetrically determines the concentration of NO2^− resulting from NO oxidation in the extracellular space. Fluorescence detection of NO production by stimulated macrophage cells was also achieved by incubation of the extracellular fluid with DAN and DAFs. These dyes improved the sensitivity of Griess assay, but were unable to reveal NO production inside cells with spatial and temporal fidelity. The present Cu(FL5) construct, however, readily detects NO produced in activated Raw 264.7 cells by fluorescence turn-on. Macrophage cells were incubated with LPS (500 ng/mL) and IFN-γ (250 U/mL) for 4 h, after which 1 μM Cu(FL5) was applied. The fluorescence response was monitored at 2 h intervals by microscopy (FIG. 6a).
To investigate further the origin of fluorescence detected by Cu(FL5), iNOS was silenced in Raw 264.7 cells by short hairpin RNA (shRNA)-induced RNA interference (RNAi) (FIG. 6b).
Raw 264.7, SK-N-SH, and HeLa cells were purchased from the American Type Culture Collection (ATCC). […] The expression of iNOS in Raw 264.7 cells was analyzed by Western blot on the extracts of cells stimulated by LPS and INF-γ. The protein was silenced by short hairpin RNA-induced RNAi and the resulting cell lines were used in fluorescence imaging by Cu(FL5).

In the case of `Cc1ccc2cccc(NCc3c([O][Cu][Cl])ccc4c(-c5ccccc5C(=O)O)c5cc(Cl)c(=O)cc-5oc34)c2n1` [Cu(FL5)], the “fluorescence response to NO under both anaerobic and aerobic conditions” value [1] is reported as “immediate fluorescence response”, the “lower detection limit for NO” value [1] is reported as 5 nM and the “increase in fluorescence upon addition of excess NO” value ([1]; buffered aqueous solution, immediate) is reported as 11.2±1.5 fold. The “increase in fluorescence upon addition of NO in the presence of excess EDTA” value ([1]; excess EDTA chelating Cu(II)) was 1.3±0.2 fold, the “fluorescence on reaction with NO-releasing agent SNAP” value [1] was “enhanced” and the “fluorescence on reaction with NO-releasing agent SNAP” value ([1]; listed as Cu(II)(FL5)) was “turn-on fluorescence”. The “increase in fluorescence in SK-N-SH cells” value ([2]; 17β-estradiol (100 nM) and Cu(FL5) (1 μM) administered simultaneously) was 4.0±0.6 fold, the “time to complete fluorescence response in SK-N-SH cells” value ([2]; 17β-estradiol (100 nM), probe 1 μM) was ≤ 5 min and the “fluorescence response in presence of cNOS inhibitor L-NNA” value ([2]; 17β-estradiol-stimulated SK-N-SH cells) was “notably weaker fluorescence response”. The “fluorescence enhancement in living cells, both cNOS and iNOS” value ([2]; both cell lines (Raw 264.7 and SK-N-SH)) was > 4 fold, the “brightness of NO visualization compared with DAF-2 DA” value ([2]; estradiol-stimulated neuroblastoma cells) was “brighter fluorescence than DAF-2 DA” and the “average fluorescence in activated Raw 264.7 cells” value ([3]; LPS (500 ng/mL) and IFN-γ (250 U/mL) 4 h, then 1 μM Cu(FL5), monitored at 2 h intervals) was “slowly increased over 12 h”. For the same compound, the “fluorescence response in Raw 264.7 cells with iNOS silenced by shRNA vs plasmid vector only” value ([3]; stimulated by LPS and IFN-γ) was “much weaker fluorescence response” and the “fluorescence response in stimulated Raw 264.7 cells in presence of iNOS inhibitor L-NMA” value ([3]; vs absence of L-NMA) was “notably weaker fluorescence response”.
For `Cc1ccc2cccc(NCc3c(O)ccc4c(-c5ccccc5C(=O)O)c5cc(Cl)c(=O)cc-5oc34)c2n1` [FL5, 2-{2-chloro-6-hydroxy-5-[(2-methyl-quinolin-8-ylamino)-methyl]-3-oxo-3H-xanthen-9-yl}-benzoic acid], the “increase in fluorescence when treated with excess NO over 30 min” value ([1]; control: no Cu(II), over 30 min) was 1.5±0.2 fold, the “fluorescence in stimulated SK-N-SH cells in the absence of Cu(II) ion” value ([2]; over a period of 25 min) was “no fluorescence increase” and the “turn-on fluorescence emission in stimulated Raw 264.7 cells without Cu(II) ion” value ([3]; LPS and IFN-γ, 12 h incubation period) was “not observed”.
